In paper PMC5012620, “Blocking the Interactions between Calcium-Bound S100A12 Protein and the V Domain of RAGE Using Tranilast” (PLoS ONE, 2016) one finds Kd data, which are given here for 2 molecules.

The target of one assay is T1, S100A12 (Homo sapiens, UniProt P80511).
T1 sequence (P80511 2-92): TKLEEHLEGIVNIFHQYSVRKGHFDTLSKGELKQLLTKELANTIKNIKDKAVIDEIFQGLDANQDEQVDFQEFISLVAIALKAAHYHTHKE
The assay can be described thus: fluorescence titration (tranilast emission, excitation […] nm); 1H-15N HSQC NMR titration. In kind it is binding.

A further assay addresses T2, RAGE V domain V domain (Homo sapiens, UniProt Q15109).
T2 chain: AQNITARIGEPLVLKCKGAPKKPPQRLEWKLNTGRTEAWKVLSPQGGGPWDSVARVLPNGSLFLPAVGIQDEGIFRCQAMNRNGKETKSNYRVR
The assay can be described thus: fluorescence titration (Trp).

What is called Kd is the concentration at which binding is half-saturated. Read a high Kd as a looser complex. `COc1ccc(/C=C/C(=O)Nc2ccccc2C(=O)O)cc1OC` [tranilast] yielded a Kd at S100A12 of 6.1 ± 1.4 µM.

B1: S100A12 (protein)
chain: TKLEEHLEGIVNIFHQYSVRKGHFDTLSKGELKQLLTKELANTIKNIKDKAVIDEIFQGLDANQDEQVDFQEFISLVAIALKAAHYHTHKE
modifications: Ca2+
B1 had a Kd with RAGE V domain V domain of approximately 3.1 µM.
